# Measurements from US10538512B2, “Aminoacylindazole immunomodulators for treatment of autoimmune diseases” (The Rockefeller University, priority 2016, dated 2020).
# Biological target: T1, Human FXIIa (Homo sapiens, UniProt P00748)
# T1 construct: active coagulation factor XII (FXIIa); purchased Enzyme Research Labs
# T1 sequence (P00748 373-615 limits assumed): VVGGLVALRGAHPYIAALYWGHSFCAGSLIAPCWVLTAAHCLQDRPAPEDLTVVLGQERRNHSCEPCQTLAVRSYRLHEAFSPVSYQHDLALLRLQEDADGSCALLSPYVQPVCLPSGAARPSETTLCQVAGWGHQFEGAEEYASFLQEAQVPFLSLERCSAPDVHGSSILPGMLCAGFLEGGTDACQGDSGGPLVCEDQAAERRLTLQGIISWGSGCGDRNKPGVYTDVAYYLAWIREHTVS
# T1 sequence (P00748 20-372 partner limits assumed): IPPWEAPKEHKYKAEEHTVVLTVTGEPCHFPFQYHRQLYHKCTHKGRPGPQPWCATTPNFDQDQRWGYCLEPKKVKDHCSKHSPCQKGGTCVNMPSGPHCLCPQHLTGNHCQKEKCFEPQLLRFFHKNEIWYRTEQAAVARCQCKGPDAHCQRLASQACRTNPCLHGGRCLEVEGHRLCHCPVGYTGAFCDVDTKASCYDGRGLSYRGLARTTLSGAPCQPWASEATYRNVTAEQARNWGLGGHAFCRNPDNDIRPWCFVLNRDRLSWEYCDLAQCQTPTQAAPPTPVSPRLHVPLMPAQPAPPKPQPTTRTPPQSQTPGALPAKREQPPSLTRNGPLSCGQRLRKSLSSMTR
# Assay: Factor XIIa (FXIIa) inhibitory activity, chromogenic substrate assay
# Format: biochemical
# Conditions: Human FXIIa 12.5 nM, Pefachrome XIIa 400 μM, 10 min preincubation
# Protocol: Factor XIIa (FXIIa) Inhibitory Activity:
# In a 96-well clear bottom plate, 80 μl of assay buffer was added to each well. Assay buffer consists of 0.5× Hank's Balanced Salt Solution (Invitrogen), buffered with 25 mM HEPES pH 7.4 (Invitrogen) and 0.5× Tris-buffered saline with Tween-20 0.05% (Santa Cruz Biotechnology). Test compounds were first dissolved in DMSO (Sigma) and then 4 μl were added to test wells containing assay buffer. Serial dilutions using an automated multi-channel pipette were used to generate a concentration range of approximately 1-100 μM. […] 80 μl of this enzyme solution was added to the assay wells. The enzyme/compound mixtures were incubated for 10 minutes at room temperature. Chromogenic substrate (Pefachrome XIIa; Enzyme Research Labs) was added to assay wells at a final concentration of 400 μM. The assay plate was spun for 1 minute at 1500 g and then read at 37° C. in a SpectraMax M2 plate reader (λ=405 nm). Activity was quantified as the rate of change in absorbance, which corresponds to the rate of substrate cleavage.
row,SMILES,IC50 [µM]
1,"Nc1c2c(nn1C(=O)[C@H]1CCNc3ccc(F)cc31)CC[C@H](O)C2 (single isomer, unassigned) [Example 133, ((5S*)-3-amino-5-hydroxy-4,5,6,7-tetrahydroindazol-2-yl)((4S*)-6-fluoro-1,2,3,4-tetrahydroquinolin-4-yl)methanone]",33
2,"Nc1c2c(nn1C(=O)[C@@H]1CCNc3ccc(F)cc31)CC[C@@H](F)C2 (single isomer, unassigned) [Example 138, ((5R*)-3-amino-5-fluoro-4,5,6,7-tetrahydroindazol-2-yl)((4R*)-6-fluoro-1,2,3,4-tetrahydroquinolin-4-yl)methanone]",16
3,"Nc1nn(C(=O)C2CCNc3c(Cl)cccc32)c2c1CCC(O)C2 (single isomer, unassigned) [Example 208, ((6S*)-3-amino-6-hydroxy-4,5,6,7-tetrahydroindazol-1-yl)(8-chloro-1,2,3,4-tetrahydroquinolin-4-yl)methanone]",> 100
4,"Nc1c2c(nn1C(=O)c1cccc3c1CC(=O)N3)CCCC2 (single isomer, unassigned) [Example 64, 4-(3-amino-4,5,6,7-tetrahydro-2H-indazole-2-carbonyl)indolin-2-one]",0.2
5,"Cc1cccc2c1NCC[C@@H]2C(=O)n1nc2c(c1N)C[C@@H](N)CC2 (relative stereo) [Example 213, ((5S*)-3,5-diamino-4,5,6,7-tetrahydroindazol-2-yl)((4S*)-8-methyl-1,2,3,4-tetrahydroquinolin-4-yl)methanone]",0.06
6,"Cc1csc(C)c1C(=O)n1nc2c(c1N)CCCC2 (single isomer, unassigned) [Example 16, (3-Amino-4,5,6,7-tetrahydroindazol-2-yl)(2,4-dimethylthiophen-3-yl)methanone]",15
7,"Nc1c2c(nn1C(=O)C1CCNc3cc(F)ccc31)CCCC2 (stereo not drawn) [Example 115, (3-amino-4,5,6,7-tetrahydroindazol-2-yl)(7-fluoro-1,2,3,4-tetrahydroquinolin-4-yl)methanone]",0.4
8,"Nc1c2c(nn1C(=O)C1CCNc3ccc(F)cc31)CCC(F)(F)C2 (single isomer, unassigned) [Example 174, (R*)-(3-amino-5,5-difluoro-4,5,6,7-tetrahydroindazol-2-yl)(6-fluoro-1,2,3,4-tetrahydroquinolin-4-yl)methanone]",> 80
9,"Nc1c2c(nn1C(=O)[C@H]1CCNc3c(Cl)cccc31)CC[C@@H](O)C2 (single isomer, unassigned) [Example 204, ((5R*)-3-amino-5-hydroxy-4,5,6,7-tetrahydroindazol-2-yl)((4S*)-8-chloro-1,2,3,4-tetrahydroquinolin-4-yl)methanone]",0.04
10,"CCc1cc2c(C(=O)n3nc4c(c3N)CCCC4)cccc2n1C (single isomer, unassigned) [Example 66, (3-amino-4,5,6,7-tetrahydroindazol-2-yl)(2-ethyl-1-methyl-1H-indol-4-yl)methanone]",0.01
11,"Cc1cc2c(C(=O)n3nc4c(c3N)CCCC4)cccc2s1 [Example 57, (3-Amino-4,5,6,7-tetrahydro-indazol-2-yl)-(2-methyl-benzo[b]thiophen-4-yl)-methanone]",0.06
12,"Nc1c2c(nn1C(=O)[C@@H]1CCNc3ccc(F)cc31)CC[C@H](F)C2 (single isomer, unassigned) [Example 141, ((5S*)-3-amino-5-fluoro-4,5,6,7-tetrahydroindazol-2-yl)((4R*)-6-fluoro-1,2,3,4-tetrahydroquinolin-4-yl)methanone]",17
13,"CCc1cc2c(C(=O)n3nc(N)c4c3CCCC4)ccnc2[nH]1 [Example 114, (3-amino-4,5,6,7-tetrahydro-1H-indazol-1-yl)(2-ethyl-1H-pyrrolo[2,3-b]pyridin-4-yl)methanone]",> 100
14,"Nc1c2c(nn1C(=O)[C@H]1CCNc3c(Cl)cccc31)C[C@@H](O)CC2 (single isomer, unassigned) [Example 207, ((6S*)-3-amino-6-hydroxy-4,5,6,7-tetrahydroindazol-2-yl)((4S*)-8-chloro-1,2,3,4-tetrahydroquinolin-4-yl)methanone]",0.16
15,"Nc1c2c(nn1C(=O)C1CCCc3[nH]ccc31)CCCC2 (single isomer, unassigned) [Example 94, (S*)-(3-amino-4,5,6,7-tetrahydroindazol-2-yl)(4,5,6,7-tetrahydro-1H-indol-4-yl)methanone]",0.25
16,Nc1c2c(nn1C(=O)c1ccnc3ccccc13)CCCC2 [Example 158],13

# More lines, now with the values ahead:
row,IC50 [µM],SMILES
1,0.85,"Cn1cc2c(n1)CCCC2C(=O)n1nc2c(c1N)CCCC2 (stereo not drawn) [Example 88, (3-amino-4,5,6,7-tetrahydroindazol-2-yl)(2-methyl-4,5,6,7-tetrahydro-2H-indazol-4-yl)methanone]"
2,> 90,"Nc1nn(C(=O)[C@@H]2CCNc3ccc(F)cc32)c2c1C[C@@H](O)CC2 (single isomer, unassigned) [Example 136, ((5S*)-3-amino-5-hydroxy-4,5,6,7-tetrahydroindazol-1-yl)((4R*)-6-fluoro-1,2,3,4-tetrahydroquinolin-4-yl)methanone]"
3,0.18,"Cn1c(Cl)cc2c1CCCC2C(=O)n1nc2c(c1N)CCCC2 (stereo not drawn) [Example 112, (3-amino-4,5,6,7-tetrahydroindazol-2-yl)(2-chloro-1-methyl-4,5,6,7-tetrahydro-1H-indol-4-yl)methanone]"
4,0.3,"CN1CCC(C(=O)n2nc3c(c2N)CCCC3)c2ccccc21 (single isomer, unassigned) [Example 25, (3-Amino-4,5,6,7-tetrahydroindazol-2-yl)(1-methyl-1,2,3,4-tetrahydroquinolin-4-yl)methanone]"
5,> 100,"Nc1nn(C(=O)[C@@H]2CCNc3c(Cl)cccc32)c2c1CC[C@@H](O)C2 (single isomer, unassigned) [Example 212, ((6R*)-3-amino-6-hydroxy-4,5,6,7-tetrahydroindazol-1-yl)((4R*)-8-chloro-1,2,3,4-tetrahydroquinolin-4-yl)methanone]"
6,4,"Nc1c2c(nn1C(=O)c1cccc3ccccc13)CCCC2 [Example 39, (3-amino-4,5,6,7-tetrahydroindazol-2-yl)(naphthalen-1-yl)methanone]"
7,35,"Cc1cccc2c1NCC[C@H]2C(=O)n1nc2c(c1N)C[C@H](O)CC2 (single isomer, unassigned) [Example 217, ((5R*)-3-amino-5-hydroxy-4,5,6,7-tetrahydro-2H-indazol-2-yl)((4R*)-8-methyl-1,2,3,4-tetrahydroquinolin-4-yl)methanone]"
8,3,"Nc1c2c(nn1C(=O)[C@H]1CCNc3ccc(F)cc31)CC[C@@H](N)C2 (stereo in doubt) [Example 189, ((5R*)-3,5-diamino-4,5,6,7-tetrahydroindazol-2-yl)((4S*)-6-fluoro-1,2,3,4-tetrahydroquinolin-4-yl)methanone]"
9,> 90,"Nc1nn(C(=O)[C@H]2CCNc3ccc(F)cc32)c2c1C[C@H](O)CC2 (relative stereo) [Example 131, ((5R*)-3-amino-5-hydroxy-4,5,6,7-tetrahydro-2H-indazol-1-yl)((4S*)-6-fluoro-1,2,3,4-tetrahydroquinolin-4-yl)methanone]"
10,0.15,"Nc1c2c(nn1C(=O)C1CCNc3ccccc31)CCCC2 (single isomer, unassigned) [Example 78, (R*)-(3-amino-4,5,6,7-tetrahydroindazol-2-yl)(1,2,3,4-tetrahydroquinolin-4-yl)methanone]"
11,> 90,"Nc1nn(C(=O)[C@@H]2CCNc3ccc(F)cc32)c2c1C[C@H](O)CC2 (relative stereo) [Example 132, ((5R*)-3-amino-5-hydroxy-4,5,6,7-tetrahydro-2H-indazol-1-yl)((4R*)-6-fluoro-1,2,3,4-tetrahydroquinolin-4-yl)methanone]"
12,2.5,"Nc1c2c(nn1C(=O)c1ccnc3cc(Cl)ccc13)CCCC2 [Example 123, (3-amino-4,5,6,7-tetrahydro-2H-indazol-2-yl)(7-chloroquinolin-4-yl)methanone]"
13,> 175,"Cc1cccc2c1NCC[C@H]2C(=O)n1nc(N)c2c1C[C@H](O)CC2 (single isomer, unassigned) [Example 202, ((6R*)-3-amino-6-hydroxy-4,5,6,7-tetrahydroindazol-1-yl)((4R*)-8-methyl-1,2,3,4-tetrahydroquinolin-4-yl)methanone]"
14,0.7,"Nc1c2c(nn1C(=O)C1CCNc3cc(Cl)ccc31)CCCC2 (stereo not drawn) [Example 103, (3-amino-4,5,6,7-tetrahydroindazol-2-yl)(7-chloro-1,2,3,4-tetrahydroquinolin-4-yl)methanone]"
